The values below come from patent US20110112299A1, “TETRACYCLIC COMPOUND” (KYOWA HAKKO KIRIN CO., LTD., priority 2008, published 2011).

Each structure is given as a SMILES string.

Test [1] deals with T1, recombinant human glucocorticoid receptor (Homo sapiens, UniProt P04150).
T1 construct: purchased Panvera/Invitrogen P2812 (kit P2893)
T1 sequence (P04150 1-777): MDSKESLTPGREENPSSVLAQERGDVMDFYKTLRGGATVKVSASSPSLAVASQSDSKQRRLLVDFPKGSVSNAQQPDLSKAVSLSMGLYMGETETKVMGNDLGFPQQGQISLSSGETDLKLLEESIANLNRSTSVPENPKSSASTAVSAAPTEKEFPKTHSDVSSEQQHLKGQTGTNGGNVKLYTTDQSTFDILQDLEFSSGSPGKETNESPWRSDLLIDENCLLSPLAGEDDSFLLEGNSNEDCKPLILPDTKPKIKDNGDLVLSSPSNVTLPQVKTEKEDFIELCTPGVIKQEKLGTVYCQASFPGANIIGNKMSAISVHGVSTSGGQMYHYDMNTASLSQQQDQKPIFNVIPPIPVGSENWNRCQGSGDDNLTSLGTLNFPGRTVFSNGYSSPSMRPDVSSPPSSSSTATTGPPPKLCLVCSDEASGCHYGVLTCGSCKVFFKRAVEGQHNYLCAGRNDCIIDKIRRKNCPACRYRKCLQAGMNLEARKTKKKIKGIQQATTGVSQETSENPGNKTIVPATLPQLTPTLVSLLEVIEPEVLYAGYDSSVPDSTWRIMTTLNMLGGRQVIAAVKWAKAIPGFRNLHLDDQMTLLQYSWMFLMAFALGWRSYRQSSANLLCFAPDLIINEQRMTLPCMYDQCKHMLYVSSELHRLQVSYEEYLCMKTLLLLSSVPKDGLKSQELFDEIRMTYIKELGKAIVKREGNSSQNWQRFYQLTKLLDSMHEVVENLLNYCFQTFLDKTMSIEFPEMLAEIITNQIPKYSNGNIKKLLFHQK
Nature of the test: Human glucocorticoid receptor assay (fluorescence polarization, Test Example 1). The test is classed as binding. The procedure:
In this assay, a fluorescence polarization assay kit (Panvera/Invitrogen, product number: P2893) was used. The recombinant human glucocorticoid receptor (product number: P2812), the Fluoromore (trademark)-labeled dexamethasone (GS Green, product number: P2813), the stabilizing peptide solution (product number: P2815), and the basic buffer solution (product number: P2814) which were used in the assay kit had been stored at −80° C. until used. A buffer solution for the assay was prepared by adding the basic buffer solution (10 fold dilution), the stabilizing peptide solution (10 fold dilution), and 1 mol/L DTT (1000 fold dilution to give a final concentration of 1 mmol/L).
The assay was performed as follows. […] The fluorescence polarization value of each well was measured using a plate reader (PerkinElmer, Fusion or Envision). […] To a positive control group, dexamethasone was added so as to give a final concentration of 1 μmol/L. The glucocorticoid receptor binding rate (%) was calculated by the following formula.
Glucocorticoid receptor binding rate (%)=100×[1-(fluorescence polarization value of test compound solution−fluorescence polarization value of positive control solution)/(fluorescence polarization value of negative control solution−fluorescence polarization value of positive control solution)]

Test [2] concerns transcription-promoting activity via the glucocorticoid receptor (A549/MMTV-LTR cells). The test is classed as cell-based. Particulars: at a concentration of 300 nmol/L; relative to dexamethasone. The procedure:
A pGL4.14 plasmid (Promega, product number: AY864928) having a cloned MMTV-LTR fragment upstream of the luciferase gene (−200 to +100 relative to the transcription initiation site) was introduced into A549 cells, and the obtained strain which is constitutively resistant to a selective antibiotic hygromycin B (A549/MMTV-LTR) was used for evaluation. The A549/MMTV-LTR cells were transferred to a 96-well plate (25000 cells/well) and were cultured overnight. […] Next, 20 μL of the test compound diluted to 5-fold of the desired concentration with F-12 medium or 20 μL of 4 μmol/L dexamethasone was added thereto, and the mixture was incubated under 5% CO2 at 37° C. for 6 hours. To each well, 50 μL of a luminescence reagent (Promega, product number: E2550 or E2650) was added, and the mixture was stirred to dissolve the cells, and the luciferase activity was measured by a plate reader (PerkinElmer, TopCount).
MMTV activity (%)=100×(luminescence amount in the presence of the compound−luminescence amount in the absence of the compound)/(luminescence amount in the presence of dexamethasone−luminescence amount in the absence of the compound)

Test [3] relates to IL-1β induced IL-6 production (A549 cells). Nature of the test: Inhibition assay for IL-1β induced IL-6 production in A549 cells (Test Example 3). The following applies: at a concentration of 100 nmol/L, IL-1β stimulation, relative to dexamethasone. The format is cell-based, human. The procedure: A549 cells cultured in F-12 medium supplemented with 10% bovine serum for 3 to 5 days were transferred to a 96-well plate (50000 cells/well) and then were cultured overnight. […] After the medium was removed by suction, 60 μL of F-12 medium was added to each well, and 20 μL of the test compound diluted to 5-fold of the desired concentration with F-12 medium or 20 μL of 4 μmol/L dexamethasone was added thereto. The test compound and the dexamethasone used here were prepared beforehand by dissolving in dimethyl sulfoxide (DMSO) and diluting with F-12 medium so that the final concentration of DMSO became 0.1% v/v or lower. After 30-minute incubation under 5% CO2 atmosphere at 37° C., 20 μL of 4 nmol/L IL-1β diluted with F-12 medium was added to each well, and then incubation was performed under a 5% CO2 atmosphere at 37° C. for 12 to 18 hours. The 96-well plate was centrifuged at 300×g at 4° C. for 5 minutes, and then the culture supernatant was collected for use as a sample for IL-6 measurement. The IL-6 produced in the culture supernatant was quantified by the ELISA method (R&D Systems, product number: DY206, DouSet ELISA Development System Human IL-6), and the production inhibition rate was calculated by the following formula. […]

Turning to `CC/C(=C1\c2cc3cnn(C)c3cc2COc2ccccc21)c1cccc(NS(C)(=O)=O)c1` [Compound 2, (Z)-5-{1-[3-(methanesulfonamide)phenyl]propylidene}-1-methyl-5,11-dihydrobenzo[6,7]oxepino[4,3-f]indazole], in test [1] (at a concentration of 100 nmol/L or higher), the “inhibitory activity (glucocorticoid receptor binding rate)” value is listed as at least 80%. Also, the “selectivity for human glucocorticoid receptor over progesterone receptor” value in test [1] (from the results of Test Examples 1 and 2) is listed as “selective inhibitory activity to human glucocorticoid receptors”. This compound also yielded an MMTV activity in test [2] of at most 10%. For the same compound, in test [3], the “IL-6 production inhibitory activity” value is at least 80%.
